Experimental data reported in US20160084855A1, “Compositions and Methods for Modulation and Detection of Immune and Inflammatory Responses” (UNIVERSITY OF CONNECTICUT, priority 2013, published 2016).
Entries after “also recorded” stand apart in the source; their conditions may differ.

Columns and labels:
TLR4 = settings: Gomi et al., J Immunol. 2002; cited from earlier work
human TLR2 = target: T1, human TLR2 (Homo sapiens, UniProt O60603); assay: HEK293 cells transfected with human TLR2, CD14 (MD-2) and SEAP reporter; assay type: cell-based; settings: for HEK cell activation versus DMSO vehicle (stimulated/nonstimulated ratio): 24 h, MMP 0.2 μg/ml, LTA 2 μg/ml, lipid 654 and lipid 430 0.69 μg/ml, P<0.05; for Activation of human TLR2 in HEK cells: HPLC fractions of P. gingivalis total lipids; for Effect of pretreatment with anti-human TLR2 antibody on HEK-TLR2 cell activation: antibody 10 μg/mL 1 hour, MMP 0.1 μg/ml, LTA 1 μg/ml, lipid 430 and lipid 654 0.69 μg/ml
T1 construct: host or cells: HEK293
T1 sequence (O60603 21-784): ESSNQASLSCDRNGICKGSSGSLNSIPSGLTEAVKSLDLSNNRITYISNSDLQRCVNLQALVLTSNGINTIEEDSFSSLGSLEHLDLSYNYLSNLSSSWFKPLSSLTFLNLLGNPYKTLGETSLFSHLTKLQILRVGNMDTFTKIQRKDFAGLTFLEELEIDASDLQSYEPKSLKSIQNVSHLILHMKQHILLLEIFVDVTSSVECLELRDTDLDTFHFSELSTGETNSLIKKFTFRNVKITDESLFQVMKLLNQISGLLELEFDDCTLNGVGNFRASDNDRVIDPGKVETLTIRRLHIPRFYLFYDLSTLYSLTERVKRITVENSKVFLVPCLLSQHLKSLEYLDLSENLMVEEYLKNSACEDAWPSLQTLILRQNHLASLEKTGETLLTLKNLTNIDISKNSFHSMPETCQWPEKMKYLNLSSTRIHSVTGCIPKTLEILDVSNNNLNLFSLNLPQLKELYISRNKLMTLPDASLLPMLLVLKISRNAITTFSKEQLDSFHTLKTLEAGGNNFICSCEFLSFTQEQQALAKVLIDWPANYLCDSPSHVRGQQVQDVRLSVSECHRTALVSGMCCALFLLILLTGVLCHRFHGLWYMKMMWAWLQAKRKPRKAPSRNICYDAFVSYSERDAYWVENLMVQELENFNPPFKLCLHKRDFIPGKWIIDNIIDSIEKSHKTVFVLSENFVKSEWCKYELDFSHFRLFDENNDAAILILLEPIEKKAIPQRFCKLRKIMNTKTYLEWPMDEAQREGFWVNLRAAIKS
T1 sequence (Q9Y2C9 32-796 partner): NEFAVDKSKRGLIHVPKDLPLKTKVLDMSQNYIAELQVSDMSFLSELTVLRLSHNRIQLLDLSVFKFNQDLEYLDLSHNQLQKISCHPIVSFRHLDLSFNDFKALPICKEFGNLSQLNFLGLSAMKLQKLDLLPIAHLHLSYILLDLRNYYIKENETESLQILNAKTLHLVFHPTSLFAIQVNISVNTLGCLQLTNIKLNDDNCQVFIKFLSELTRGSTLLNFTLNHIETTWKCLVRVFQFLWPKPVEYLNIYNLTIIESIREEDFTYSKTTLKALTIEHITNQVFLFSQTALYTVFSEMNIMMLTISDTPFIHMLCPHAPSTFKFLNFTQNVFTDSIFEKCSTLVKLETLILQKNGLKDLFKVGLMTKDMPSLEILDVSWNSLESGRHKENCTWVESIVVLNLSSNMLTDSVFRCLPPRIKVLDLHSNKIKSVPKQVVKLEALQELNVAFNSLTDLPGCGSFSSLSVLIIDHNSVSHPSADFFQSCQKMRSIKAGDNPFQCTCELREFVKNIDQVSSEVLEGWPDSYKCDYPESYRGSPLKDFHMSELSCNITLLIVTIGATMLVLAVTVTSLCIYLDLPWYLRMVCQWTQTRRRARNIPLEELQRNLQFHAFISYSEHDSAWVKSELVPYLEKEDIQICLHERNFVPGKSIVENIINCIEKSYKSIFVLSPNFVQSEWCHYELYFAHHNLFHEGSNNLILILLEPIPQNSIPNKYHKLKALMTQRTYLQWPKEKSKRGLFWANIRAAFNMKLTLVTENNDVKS
Source text: In vitro effects, human cells: HEK293 cells (human embryonic kidney cells) transfected with the human TLR2 and SEAP (secreted embryonic alkaline phosphatase) genes, were used to assay the function of Lipid 654 in vitro. The HEK cells, which naturally express variable levels of TLRs 1, 3, 5, 6, 7 and 9, were also transfected with the gene for CD14. CD14 is a co-receptor that enhances TLR2 responses. Additionally, TLR2 responses are most often mediated via another co-receptor which, in most cases, is either TLR1 or TLR6. The SEAP reporter gene is under the control of the IFN-β minimal promoter fused to five NF-κB and AP-1-binding sites. Stimulation with a TLR2 ligand activates NF-κB and AP-1 which induce the production of SEAP which is then quantitated as a colorimetric change in the presence of a detection medium.
Lipid 654, solubilized in 50% DMSO in water, and two documented TLR2 agonists, MMP and lipotechoic acid (LTA), were incubated for 24 hours with the HEK cells in the presence or absence of antibodies to TLR2 and TLR6.
(§1) Cell lines and assays: Human embryonic kidney cells (HEK293 cells), either nontransfected or transfected with human TLR2 or human TLR4 and stably expressing MD-2 and CD14, were purchased from InvivoGen. Cells were cultured in Dulbecco's modified Eagle's medium (DMEM; Gibco) containing 4.5 g/liter 1-glucose and 10% fetal bovine serum (FBS). The activities of specific TLR agonists were measured through a colorimetric assay for the secretory embryonic alkaline phosphatase (SEAP), a reporter gene that is linked to NF-κB activation. Measurement of SEAP activity using the Quanti-blue substrate (InvivoGen) after TLR agonist treatment was carried out in test medium (DMEM, 10% FBS) without antibiotics. NF-κB activation was expressed as a response ratio for each stimulus relative to SEAP activity in unstimulated (vehicle control) cells. For in vitro testing, all lipid preparations tested were solubilized in a 50% mixture of dimethyl sulfoxide (DMSO)-water (approximately 1.11% DMSO in the final culture medium).
To determine the ability of P. gingivalis lipids to activate human cells via TLRs, the total lipids of P. gingivalis were fractionated by HPLC, and an aliquot of each fraction was dried and dissolved in 50% DMSO in water. Each HPLC fraction was then tested for cell activation by using HEK293 cells stably transfected with human TLR2, CD14, MD-2, and SEAP genes. In addition, the HEK293 cells naturally express variable levels of TLRs 1, 3, 5, 6, 7, and 9. The SEAP reporter gene is under the control of the beta interferon minimal promoter fused to five NF-κB and AP-1 binding sites. Stimulation with a TLR2 ligand activates NF-κB and AP-1, which induces the production of SEAP. SEAP is then quantitated via a colorimetric change in medium samples following the addition of a suitable enzyme substrate. Using this cell screen for human TLR2 engagement, each HPLC lipid fraction was screened for cell activation.

human TLR4 = target: T2, human TLR4 (Homo sapiens, UniProt O00206+Q9Y6Y9); assay: HEK293 cells transfected with human TLR4, CD14 (MD-2) and SEAP reporter; assay type: cell-based; settings: 24 hours; for Activation of TLR4-expressing HEK293 cells: Example 23, lipids 0.69 μg/ml, LPS 1 μg/ml
T2 construct: host or cells: HEK293
T2 sequence (O00206 24-839): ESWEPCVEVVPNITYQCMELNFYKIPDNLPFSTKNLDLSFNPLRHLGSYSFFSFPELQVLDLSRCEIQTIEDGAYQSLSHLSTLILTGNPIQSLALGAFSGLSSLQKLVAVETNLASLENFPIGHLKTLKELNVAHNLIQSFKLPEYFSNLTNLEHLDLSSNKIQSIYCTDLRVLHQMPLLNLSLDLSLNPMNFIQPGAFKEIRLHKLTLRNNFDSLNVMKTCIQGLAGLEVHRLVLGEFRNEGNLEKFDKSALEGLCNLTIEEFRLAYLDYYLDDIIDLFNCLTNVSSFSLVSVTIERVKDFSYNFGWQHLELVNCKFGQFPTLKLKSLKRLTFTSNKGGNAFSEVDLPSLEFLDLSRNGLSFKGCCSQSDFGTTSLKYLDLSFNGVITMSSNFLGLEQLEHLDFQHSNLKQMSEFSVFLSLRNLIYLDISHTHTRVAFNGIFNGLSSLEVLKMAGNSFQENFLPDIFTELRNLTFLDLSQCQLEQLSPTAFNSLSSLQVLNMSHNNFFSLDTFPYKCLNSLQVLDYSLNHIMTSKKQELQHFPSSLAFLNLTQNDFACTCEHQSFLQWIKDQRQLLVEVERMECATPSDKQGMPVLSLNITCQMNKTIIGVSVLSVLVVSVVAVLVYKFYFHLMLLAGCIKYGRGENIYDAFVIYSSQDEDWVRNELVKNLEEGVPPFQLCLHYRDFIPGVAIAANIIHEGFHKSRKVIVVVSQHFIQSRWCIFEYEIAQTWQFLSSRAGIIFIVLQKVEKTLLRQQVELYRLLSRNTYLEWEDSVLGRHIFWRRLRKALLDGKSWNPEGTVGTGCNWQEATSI
T2 sequence (Q9Y6Y9 17-160 limits assumed): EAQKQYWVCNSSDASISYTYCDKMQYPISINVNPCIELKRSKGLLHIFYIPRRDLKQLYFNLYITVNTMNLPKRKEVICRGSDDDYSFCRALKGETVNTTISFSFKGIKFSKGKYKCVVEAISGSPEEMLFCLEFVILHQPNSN
Description: as §1
To test whether lipid 654 and lipid 430 can function as ligands for TLR4, HEK293 cells transfected with the human TLR4, CD14, and MD-2 genes but not expressing TLR2 were utilized.

CCL2 = assay: Serum CCL2 by ELISA after injection of lipid into mice; assay type: in vivo, mouse; settings: four hours
Description: Lipid 654 was injected intraperitoneally (i.p.) into mice and three to four hours later serum was drawn and analyzed for levels of CCL2 via ELISA. Both female wild type (WT) C57BL/6 mice and female TLR2-deficient (TLR2−/−) mice were injected i.p. with either DMSO (vehicle control; VC) or Lipid 654. Three to four hours later, serum was drawn from these mice and analyzed for levels of CCL2.
In vivo assays: Wild-type (WT) C57BL/6 mice or TLR2^−/− mice were injected intraperitoneally (i.p.) or intravenously (i.v.) with vehicle control or specific lipids. Four hours later, blood samples were obtained from mice, and the mice were euthanized. Serum was separated from the blood samples and frozen at −80° C. until analysis. Serum samples were analyzed for levels of CCL2 by ELISA (R&D, Minneapolis, Minn.).
Lipid 654 was injected i.p. in 50% DMSO and lipid 430 was injected i.v. in phosphate-buffered saline (PBS). WT female C57BL/6 mice and TLR2^−/− female mice were injected with either vehicle, lipid 654, or lipid 430. Four hours later, serum was recovered from these mice and analyzed for levels of CCL2. […] The same was true for lipid 430.

TLR2 = target: T3, TLR2 (Mus musculus, UniProt Q9QUN7); assay: TLR2 engagement in mouse bone cells; assay type: cell-based
T3 construct: endogenous in cells; host or cells: mouse bone cells
T3 sequence (Q9QUN7 25-784): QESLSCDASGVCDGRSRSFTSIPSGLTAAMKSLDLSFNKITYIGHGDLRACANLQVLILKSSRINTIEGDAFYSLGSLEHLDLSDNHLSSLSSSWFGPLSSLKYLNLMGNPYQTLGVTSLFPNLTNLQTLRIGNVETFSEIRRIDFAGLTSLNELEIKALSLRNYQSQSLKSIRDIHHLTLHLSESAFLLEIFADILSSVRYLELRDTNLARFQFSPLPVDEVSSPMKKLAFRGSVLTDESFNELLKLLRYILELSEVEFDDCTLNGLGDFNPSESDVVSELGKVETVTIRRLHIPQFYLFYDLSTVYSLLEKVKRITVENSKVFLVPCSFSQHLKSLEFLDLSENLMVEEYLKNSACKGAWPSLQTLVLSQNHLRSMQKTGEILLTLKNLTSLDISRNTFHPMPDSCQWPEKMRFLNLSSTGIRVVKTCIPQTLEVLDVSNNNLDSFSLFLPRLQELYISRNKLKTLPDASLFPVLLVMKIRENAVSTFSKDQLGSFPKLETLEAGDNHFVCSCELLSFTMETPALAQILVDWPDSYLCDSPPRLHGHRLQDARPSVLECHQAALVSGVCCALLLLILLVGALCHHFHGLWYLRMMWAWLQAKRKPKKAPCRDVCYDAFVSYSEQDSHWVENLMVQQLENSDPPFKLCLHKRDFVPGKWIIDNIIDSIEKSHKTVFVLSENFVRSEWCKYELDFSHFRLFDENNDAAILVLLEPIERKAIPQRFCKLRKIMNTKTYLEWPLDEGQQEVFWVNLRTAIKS
T3 sequence (Q9EPW9 28-795 partner): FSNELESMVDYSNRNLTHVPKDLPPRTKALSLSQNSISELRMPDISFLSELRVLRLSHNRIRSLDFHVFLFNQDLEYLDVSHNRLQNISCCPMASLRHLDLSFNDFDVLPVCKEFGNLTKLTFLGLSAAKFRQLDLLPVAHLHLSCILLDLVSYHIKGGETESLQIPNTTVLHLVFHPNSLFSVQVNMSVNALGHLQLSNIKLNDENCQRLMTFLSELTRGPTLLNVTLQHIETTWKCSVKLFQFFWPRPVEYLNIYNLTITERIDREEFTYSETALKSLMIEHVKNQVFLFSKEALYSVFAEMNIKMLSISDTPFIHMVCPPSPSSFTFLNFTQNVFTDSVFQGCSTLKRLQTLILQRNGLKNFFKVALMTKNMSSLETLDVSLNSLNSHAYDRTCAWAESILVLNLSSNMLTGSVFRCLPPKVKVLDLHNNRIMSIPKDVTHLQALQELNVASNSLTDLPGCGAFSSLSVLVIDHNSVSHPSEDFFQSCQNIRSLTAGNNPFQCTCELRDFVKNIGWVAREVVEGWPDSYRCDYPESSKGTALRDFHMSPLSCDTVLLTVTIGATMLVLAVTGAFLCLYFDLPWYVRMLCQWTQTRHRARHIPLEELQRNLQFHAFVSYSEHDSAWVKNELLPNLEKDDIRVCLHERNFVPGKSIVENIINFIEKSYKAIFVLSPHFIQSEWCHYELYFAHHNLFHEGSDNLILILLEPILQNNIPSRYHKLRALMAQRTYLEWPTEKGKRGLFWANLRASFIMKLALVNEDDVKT
Source text: Phospholipase A2 enzymes are recovered in all tissues and levels of this enzyme are increased in association with virtually all chronic inflammatory diseases. In fact, phospholipase A2 inhibitors are being used to treat atherosclerosis, multiple sclerosis, and a variety of other conditions. Phospholipase A2 hydrolyzes glycerol phospholipids so that the ester linked fatty acid in the #2 carbon position of glycerol is released, but only for a glycerol ester linkage in the L enantiomeric configuration. Phospholipase A2 will not hydrolyze fatty acid linked in the D enantiomeric form of glycerol.

female SJL mice with EAE = assay: EAE by transfer of PLP-stimulated lymph node lymphocytes into SJL mice; assay type: in vivo, mouse; settings: 2 ng of Lipid 654 intravenously on day of cell transfer; 30 days; 5 mice; p=0.0006
Description: Female SJL mice were injected intra-peritoneally with 30×10^6 4-day in-vitro-activated proteolipid protein (PLP)-stimulated lymph node lymphocytes and on the same day injected intravenously with either phosphate buffered saline (PBS) (vehicle control=“VC”) or 2 ng of Lipid 654. Mice were followed for 30 days for development of EAE and scored as 1=tail paralysis; 2=abnormal gait; 3=paralyzed hind legs; 4=paralyzed front and hind legs; 5=death. The results in FIG. 21 depict the daily mean for 5 mice injected with the VC and 5 mice injected with Lipid 654. […] Thus, MS patients can be treated directly with Lipid 654 or with commensal bacteria that produce increased amounts of Lipid 654.

Description for phospholipase A2 (PLA2): Aliquots of the enriched 654 (10 μg each) were dispensed into conical vials and the residual solvent was dried. Tris-buffered (10 mM) saline containing either no calcium/0.01% sodium EDTA, 2.5 mM calcium, or 10 mM calcium was added to specific vials (1.0 ml) and the solution was sonicated for 30 seconds. Specific vials were then supplemented with either porcine pancreatic phospholipase A2 (PP PLA2), honey bee venom PLA2, bovine liver nonspecific esterase (BLE), phospholipase C (PLC), lipoprotein lipase (LL), phospholipase D (PLD), or cobra venom factor (CVF). PP PLA2 or HBV PLA2 was added at a concentration of 96 or 120 U/ml, respectively. All other lipase preparations were used at this or a higher concentration. Controls were dissolved in the indicated Tris buffer but were not supplemented with enzyme. Each vial was stirred for 3 days after which the hydrolyzate was acidified with 100 ul of glacial acetic acid and extracted three times with chloroform. The pooled extracts were dried, reconstituted in HPLC solvent, and evaluated for recovery of Lipid 654 and Lipid 430 using MRM-MS as previously described. Two different isolates of Lipid 654, indicated as (A) and (B), were compared for hydrolysis by either porcine pancreatic or honey bee venom PLA2.

Compound | Innate immune activation via TLR4 (TLR4) | HEK cell activation versus DMSO vehicle (stimulated/nonstimulated ratio) (human TLR2) | Activation of human TLR2 in HEK cells (human TLR2; 24 hours) | Effect of pretreatment with anti-human TLR2 antibody on HEK-TLR2 cell activation (human TLR2; 24 hours) | Activation of TLR4-expressing HEK293 cells (human TLR4) | Serum levels of CCL2 (CCL2; TLR2−/− mice, lipid 430 2.5 μg i.v. in PBS) | Serum levels of CCL2 (CCL2; WT mice, lipid 430 2.5 μg i.v. in PBS) | Potency in engaging TLR2 relative to the Lipid 654 preparation (TLR2) | TLR2 agonism (TLR2; Lipid 430 released with PLA2 treatment of Lipid 654) | Effect of anti-TLR2 and anti-TLR6 antibodies on NF-κB activation (human TLR2; Example 17, 24 hours) | NF-κB activation (SEAP) (human TLR2; Example 17, 24 hours, no antibodies) | Activation of TLR4-expressing cell line (human TLR4; Example 17, LPS derived from P. gingivalis, two preparations of Lipid 654) | Serum levels of CCL2 (CCL2; TLR2−/− mice, lipid 654 1 μg i.p. in 50% DMSO) | Serum levels of CCL2 (CCL2; WT mice, lipid 654 1 μg i.p. in 50% DMSO) | Course of EAE compared to vehicle control (female SJL mice with EAE) | Hydrolysis to Lipid 430 by other common lipase enzymes (phospholipase A2 (PLA2); BLE, PLC, LL, PLD, CVF, 3 days) | Hydrolysis by phospholipase A2 enzymes (phospholipase A2 (PLA2); porcine pancreas PLA2 96 U/ml or honey bee venom PLA2 120 U/ml, 3 days) | Portion not hydrolyzed by PLA2 (phospholipase A2 (PLA2); repeated treatment with PLA2)
CC(C)CCCCCCCCCCCC(=O)O[C@H](CCCCCCCCCCCC(C)C)CC(=O)NCC(=O)NC(CO)C(=O)O (stereo partly shown) [Flavolipin] | acting as an agonist for TLR4 | – | – | – | – | – | – | – | – | – | – | – | – | – | – | – | – | –
CC(C)CCCCCCCCCCCC(O)CC(=O)NCC(=O)N[C@@H](CO)C(=O)O (stereo partly shown) [Lipid 430] | – | promoted significant HEK cell activation over the control cells; also recorded: significantly elevated over the DMSO vehicle | activates HEK cells through TLR2; also recorded: show the capacity to activate human TLR2 in HEK cells | significantly inhibited by pretreatment with anti-human TLR2 antibody | showed no capacity to activate the TLR4-expressing cell line | failed to do so | induced a significant increase in serum levels of CCL2 | at least ten fold more potent | strong TLR2 agonist | – | – | – | – | – | – | – | – | –
CC(C)CCCCCCCCCCCC(=O)OC(CCCCCCCCCCCC(C)C)CC(=O)NCC(=O)N[C@@H](CO)C(=O)O (stereo partly shown) [Lipid 654] | – | promoted significant HEK cell activation over the control cells; also recorded: significantly elevated over the DMSO vehicle | show the capacity to activate human TLR2 in HEK cells | significantly inhibited by pretreatment with anti-human TLR2 antibody | showed no capacity to activate the TLR4-expressing cell line | – | – | – | – | inhibited by anti-TLR2 and anti-TLR6 antibodies | demonstrated NF-κB-activation | showed no ability to activate the TLR4-expressing cell line | failed to do so | induced a significant increase in serum levels of CCL2 | significantly inhibited the course of EAE | no other common lipase enzymes | is hydrolyzed by phospholipase A2 (PLA2) enzymes | Approximately half
